The values that follow come from ChEMBL document CHEMBL3400029, “Xanthones from the roots of Maclura cochinchinensis var. gerontogea and their retinoic acid receptor-α agonistic activity” (Bioorg Med Chem Lett, 2015).

What all share (type): cell-based
The target in data set [1] is T1, Retinoic acid receptor alpha (Homo sapiens) (UniProt P10276).
T1 sequence (whole entry): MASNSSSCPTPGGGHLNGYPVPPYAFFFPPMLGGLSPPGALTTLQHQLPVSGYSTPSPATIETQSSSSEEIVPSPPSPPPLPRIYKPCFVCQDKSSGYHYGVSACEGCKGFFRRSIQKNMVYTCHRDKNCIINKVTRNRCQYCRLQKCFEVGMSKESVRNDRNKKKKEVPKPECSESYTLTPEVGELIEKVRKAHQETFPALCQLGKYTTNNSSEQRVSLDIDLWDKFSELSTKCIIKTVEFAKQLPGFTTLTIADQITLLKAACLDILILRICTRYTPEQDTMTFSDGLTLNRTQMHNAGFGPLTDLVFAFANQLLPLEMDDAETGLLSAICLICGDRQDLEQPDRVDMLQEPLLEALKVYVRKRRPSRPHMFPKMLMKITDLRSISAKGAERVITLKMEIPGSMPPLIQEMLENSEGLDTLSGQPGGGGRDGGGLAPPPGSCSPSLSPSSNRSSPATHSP
The experiment in a line: Agonist activity at RARalpha (unknown origin) expressed in HEK293 cells assessed as transcriptional activation at 1 uM after 48 hrs by luciferase reporter gene assay. (In a reporter assay the amount or activity of a reporter protein is the signal.)

In data set [2] the target is T1, Retinoic acid receptor alpha (Homo sapiens). The experiment in a line: (§1) Agonist activity at RARalpha (unknown origin) expressed in HEK293 cells assessed as transcriptional activation after 48 hrs by luciferase reporter gene assay.
In data set [3] the target is T2, Retinoic acid receptor alpha (Homo sapiens, UniProt P10276).
T2 sequence (P10276 whole entry): T1 sequence (whole entry)
The description is as §1.

In data set [4] the target is T2, Retinoic acid receptor alpha. The experiment in a line: Agonist activity at RARalpha (unknown origin) expressed in HEK293 cells assessed as transcriptional activation after 48 hrs by luciferase reporter gene assay in presence of bexarotene.
The subject of the next data set is HEK293. The experiment in a line: Cytotoxicity against HEK293 cells at > 1 uM. To be noted: human.

Activity calls are given as the source filed them. The rule behind the calls is not given here.

Usually EC50 stands for the concentration giving half of the maximal effect. As to `CC1(C)C=Cc2c(cc(O)c3c(=O)c4c5c(ccc4oc23)OC(C(C)(C)O)C5)O1` (stereo not drawn), the result in data set [1] was Active. In data set [2], the Activity result was “Dose-dependent effect”. For the same compound, the EC50 in data set [3] came out at 65 nM; in data set [4], 170 nM.
Turning to `CC1Oc2cc3oc4c(O)c5c(cc4c(=O)c3c(O)c2C1(C)C)C=CC(C)(C)O5` (stereo not drawn) [GERONTOXANTHONE A], in data set [1], the outcome was Active. For the same compound, the Activity entry in data set [2] is “Dose-dependent effect”. The results for the half-maximal effective concentration (EC50) in data set [3] and in data set [4] were 170 nM and 200 nM, respectively.
On to `C=CC(C)(C)c1c(O)cc2oc3c(O)c4c(cc3c(=O)c2c1O)C=CC(C)(C)O4` [GERONTOXANTHONE B], for which the result in data set [1] was Active. For the same compound, the Activity result in data set [2] was “Dose-dependent effect”. The EC50 in data set [3] came to 1700 nM; in data set [4] it was 2000 nM.
With `CC(C)=CCc1c(O)ccc2oc3c4c(cc(O)c3c(=O)c12)OC(C)(C)C=C4`, the outcome in data set [1] was Active. In data set [2], the Activity result was “Dose-dependent effect”. In addition, the values for the half-maximal effective concentration (EC50) in data set [3] and in data set [4] were 110 nM and 200 nM, respectively.
For the compound `CC(C)=CCc1c(O)cc(O)c2c(=O)c3c(CC=C(C)C)c(O)ccc3oc12` [GERONTOXANTHONE H], the outcome in data set [1] was Active. Further, the Activity entry with HEK293 is listed as “Toxic”.
